System: VHSV
Experiment: Inhibition of in vitro VHSV infection of ZF4 cells
Format: cell-based, viral haemorrhagic septicemia virus VHSV- 07.71
Details: for VHSV-inhibiting concentrations lower than those of the SERPINe1-derived peptide: ZF4 cells, duplicates (Fig. 3)

Compound | VHSV-inhibiting concentrations lower than those of the SERPINe1-derived peptide [fold] | Inhibition of VHSV infectivity in vitro (68 μg per ml (∼40 μM), ZF4 cells (Fig. 3)) [%]
O=C(O[C@@H]1Cc2c(O)cc(O)cc2O[C@@H]1c1cc(O)c(O)c(O)c1)c1cc(O)c(O)c(O)c1 [EGCG] | ~50 | 
O=C(O)C(=O)c1cn(Cc2ccccc2)c2ccc(-c3ccc(OC(F)(F)F)cc3)cc12 [tiplaxtinin] | ~50 | 
tannic acid | ~50 | ~95
